“And” between values parts separate entries of the source, which are not always exact repeats. Equal values may be shown once. Read-outs that look alike come from different tables or passages of the source.
Legend:
[1] = Pharmacokinetic profile of PND in rats with or without ibrutinib (UGTs inhibitor) pretreatment; format: in vivo, rat; conditions: for Cmax / Tmax: 3.5 mg/kg; for MRT inf: n = 3, read-out: MRT0-∞
Method: Ibrutinib, a broad inhibitor of UGTs, was used to block the metabolism of PND via UGTs. PND and ibrutinib were formulated in PEG 300-water (70%: 30%, v/v) and DMSO-Cremophor EL-water (10%: 30%: 60%, v/v/v), respectively. Rats were pretreated through intraperitoneal (i.p.) injection of ibrutinib (100 mg/kg) or vehicle (three rats per group). After 0.5 h, PND (3.5 mg/kg) were administrated via gavage. Then blood samples were taken into heparinized tubes for separating plasma. Time points included before dosing, at 5, 20 and 45 min and 1.25, 2, 3, 4, 6, 8, 12, 24 and 48 h after dosing. Plasma was separated by centrifuging the blood samples at 3000 rpm for 10 min and then stored at −40 °C until analysis. The plasma samples were analyzed using the reported LC–MS/MS method as described in our previous study.
Figures and statistics were plotted and calculated using GraphPad Prism (version 8.4.3) and Microsoft Excel (version 2019). Metabolic pathways were illustrated with ChemBioDraw Ultra (version 13.0). Pharmacokinetic parameters were estimated using non-compartmental methods (WinNonlin version 2.0, Pharsight Co., Certara, NJ, USA). All pharmacokinetic parameters were given as the mean ± standard deviation. All statistical analyses were performed using SAS (version 9.4; SAS Institute Inc., Cary, NC, USA). A p value < 0.05 was considered statistically significant.

[2] = mouse LMs
[3] = design: method as in PMID 32520560; conditions: cited from earlier work
[4] = tested on: CYPs; test: in vitro; conditions: mouse, pH 7.4
[5] = tested on: UGTs (rat LMs); conditions: rat LMs (RLM)
[6] = rat bile, after 72 h of administration via gavage (3.5 mg/kg) and injection (0.35 mg/kg)
[7] = tested on: CYPs (mouse LMs); conditions: mouse LMs (MLM)
[8] = tested on: CYPs (human LMs); conditions: human LMs (HLM)
[9] = human LMs
[10] = tested on: CYPs; test: in vitro; conditions: human, pH 7.4
[11] = tested on: CYPs (rat LMs); conditions: rat LMs (RLM)
[12] = tested on: CYPs; test: in vitro; conditions: rat, pH 7.4
[13] = tested on: IAV; design: method as in PMID 32520560; conditions: mice, oral dosing; superior to oseltamivir; cited from earlier work
[14] = rat LMs
[15] = Metabolite profiling of PND in rat bile, urine, feces and plasma by UHPLC–HRMS; format: in vivo; conditions: feces
Method: Rats, three animals in each group, were randomly selected and treated with PND orally (3.5 mg/kg) or intravenously (0.35 mg/kg). Blood samples were collected into heparinized tubes by retro-orbital bleeding via capillary tubes under isoflurane anesthesia at 0.33, 3 and 8 h after oral administration and at 0.25, 4 and 8 h after intravenous injection. Plasma was separated by centrifuging the blood samples at 3000 rpm for 10 min. Rats were individually housed in metabolic cages (Tecniplast, Buguggiate, Italia) for collecting urine and feces samples. Additionally, the bile duct of rats under anesthesia with chloral hydrate (10% w/v) were cannulated with a S2-RBDC cannula (Skillsmodel, Beijing) for collecting bile. Urine and feces as well as bile samples were collected pre-dosing and at the following intervals postdosing: 0–2, 2–4, 4–6, 6–8, 8–10, 10–12 (0–12 for feces sample), 12–24, 24–36, 36–48 and 48–72 h. Bile and urine volume was recorded. Feces samples were freeze-dried, weighed, powered, added with water (9 mL/g) and homogenized. All samples were stored at −40 °C until analysis.
Identification analysis of metabolites in bio-samples was performed as described previously using a Dionex Ultimate 3000 UHPLC system combined with a Q-Exactive Focus Orbitrap mass spectrometer (Thermo Fischer Scientific, MA, USA) fitted with a CORTECS T3 column (2.1 × 150 mm, 2.7 μm; Waters, MA, USA). […]

[16] = tested on: UGTs (mouse LMs); conditions: mouse LMs (MLM)
[17] = tested on: UGTs (human LMs); conditions: human LMs (HLM)
[18] = PND i.g 3.5 mg/kg, ibrutinib i.p. 100 mg/kg versus control
[19] = rat, plasma, oral, PND i.g 3.5 mg/kg after i.p. Ibrutinib (100 mg/kg) pretreatment, Mean ± SD, n = 3
[20] = rat, plasma, po, PND i.g 3.5 mg/kg, Control, Mean ± SD, n = 3

What does the source list for `CC(=O)c1cc(C)c(O)c(Cc2[nH]c3ccccc3c2Cc2c(O)c(C)cc(C(C)=O)c2O)c1O` [PND, Penindolone]?
CLz ([1]; PND i.g 3.5 mg/kg, Control, Mean ± SD, n = 3): 0.88 ± 0.22 L/h/kg; Elevation of Cmax of PND after pretreatment with ibrutinib [1, 18]: 18.78%; Increase of AUC0–∞ of PND after combination with ibrutinib [1, 18]: 30.56%; Cmax ([1]; rat, plasma, oral, PND i.g 3.5 mg/kg after i.p. Ibrutinib (100 mg/kg) pretreatment, Mean ± SD, n = 3, read-out: Cmax-1): 272 ± 36.9 ng/mL; Tmax ([1]; rat, plasma, oral, PND i.g 3.5 mg/kg after i.p. Ibrutinib (100 mg/kg) pretreatment, Mean ± SD, n = 3, read-out: Tmax-1): 28.2 ± 14.4 min; AUC(0-inf) [1, 19]: 5450 ± 2690 ng·h/mL; Vd [1, 19]: 15.6 ± 6.42 L/kg; half-life [1, 19]: 949 ± 589 min; clearance ([1]; rat, plasma, oral, PND i.g 3.5 mg/kg after i.p. Ibrutinib (100 mg/kg) pretreatment, Mean ± SD, n = 3, read-out: CLz (converted)): 13.5 mL/min/kg; MRT inf ([1]; rat, plasma, oral, PND i.g 3.5 mg/kg after i.p. Ibrutinib (100 mg/kg) pretreatment, Mean ± SD): 23.9 ± 12.7 h; Cmax ([1]; rat, plasma, po, PND i.g 3.5 mg/kg, Control, Mean ± SD, n = 3, read-out: Cmax-1): 229 ± 128 ng/mL; Cmax ([1]; rat, plasma, po, PND i.g 3.5 mg/kg, Control, Mean ± SD, n = 3, read-out: Cmax-2): 197 ± 46.8 ng/mL; Tmax ([1]; rat, plasma, po, PND i.g 3.5 mg/kg, Control, Mean ± SD, n = 3, read-out: Tmax-1): 36.6 ± 14.4 min; Tmax ([1]; rat, plasma, po, PND i.g 3.5 mg/kg, Control, Mean ± SD, n = 3, read-out: Tmax-2): 360 min; AUC(0-inf) [1, 20]: 4180 ± 1190 ng·h/mL; half-life [1, 20]: 292 ± 18 min; MRT inf ([1]; rat, plasma, po, PND i.g 3.5 mg/kg, Control, Mean ± SD): 12.8 ± 0.22 h; PND metabolized in LMs in the presence of NADPH ([2]; NADPH, within 1 h, PND 2 µM): ~89%; Prototype drug eliminated in the presence of UDPGA ([2]; UDPGA, PND 2 µM): more than 65%; Stability in LMs without co-factors ([2]; without NADPH or UDPGA): stable; Bioavailability [3]: low; Km [4]: 16.1 µM; Clint [5]: 0.030 µL/min; Km [5]: 46.7 µM; Vmax [5]: 1.38 nmol/(min×mg Protein); Accumulation of PND in bile [6]: 2.68–3.35 % of dosing; Clint [7]: 0.069 µL/min; Vmax [7]: 1.11 nmol/(min×mg Protein); Clint [8]: 0.013 µL/min; Vmax [8]: 1.28 nmol/(min×mg Protein); PND diminished in LM system in the presence of NADPH ([9]; NADPH, within 60 min, PND 2 µM): Less than 16%; Prototype drug eliminated in the presence of UDPGA ([9]; UDPGA, PND 2 µM): more than 65%; Stability in LMs without co-factors ([9]; without NADPH or UDPGA): stable; Km [10]: 97.7 µM; Clint [11]: 0.073 µL/min; Vmax [11]: 1.11 nmol/(min×mg Protein); Km [12]: 15.2 µM; Protection against IAV-induced death and weight loss [13]: protect mice against IAV-induced death and weight loss; PND metabolized in LMs in the presence of NADPH ([14]; NADPH, within 1 h, PND 2 µM): Approximately 96%; Prototype drug eliminated in the presence of UDPGA ([14]; UDPGA, PND 2 µM): more than 65%; Stability in LMs without co-factors ([14]; without NADPH or UDPGA): stable; Detection of PND (M0) in bio-samples [15]: detected in all bio-samples; Clint [16]: 0.198 µL/min; Km [16]: 31.6 µM; Vmax [16]: 6 nmol/(min×mg Protein) and 6.25 nmol/(min×mg Protein); Clint [17]: 0.089 µL/min; Km [17]: 23.4 µM; Vmax [17]: 2.08 nmol/(min×mg Protein)

Reference: publication PMC9920254 (Molecules, 2023)
